Biological target: human GPR17 short isoform (Homo sapiens, UniProt Q13304)
Experiment: GPR17 cAMP assay (antagonist mode, TR-FRET cAMP detection)
Format: cell-based
Conditions: CHO-K1 cells stably expressing human GPR17 short isoform; with EC80 concentration of agonist MDL29,951, IBMX 0.5mM, forskolin 15µM; normalized to reference antagonist; read-out: hGPR17 cAMP IC50
Description: CHO-K1 cells stably expressing vector containing untagged human GPR17 short isoform (Roche) were cultured at 37°C / 5% CO2 in DMEM (Dulbecco's Modified Eagle Medium):F-12 (1:1) supplemented with 10% foetal bovine serum and 400 µg/ml Geneticin.
Changes in intracellular cyclic adenosine monophosphate (cAMP) levels were quantified using the Nano-TRF Detection Assay kit (Roche Diagnostics, Cat. No. 05214386001). This assay allows for direct cAMP quantification in a homogeneous solution. cAMP is detected based on time-resolved fluorescence energy transfer (TR-FRET) and competitive binding of ruthenylated cAMP and endogenous cAMP to an anti-cAMP monoclonal antibody labeled with AlexaFluor-700. The Ruthenium complex serves as the FRET donor and transfers energy to AlexaFluor-700. The FRET signal is inversely proportional to the cAMP concentration.
CHO-GPR17S cells were detached with Accutase and resuspended in assay buffer consisting of Hank's Balanced Salt Solution (HBSS), 10mM HEPES (4-(2-hydroxyethyl) piperazine-1-ethanesulfonic acid solution) and 0.1% bovine serum albumin (pH 7.4). The cells were seeded in black 384-well plates (Corning) at a density of 10'000 cells / 20µl assay buffer until the addition of compounds.
Test antagonist compounds were serially diluted in dimethyl sulfoxide (DMSO) and spotted in 384-well plates. The compounds were then diluted in HBSS buffer supplemented with an EC80 concentration of MDL29,951 (3-(2-Carboxy-4,6-dichloroindol-3-yl)propionic acid) (GPR17 agonist) plus 3-Isobutyl-1-methylxanthine (IBMX) (0.5mM final concentration) and added to the cells at room temperature. Forskolin (15µM final concentration) was added 5 minutes after the test compounds and the cells were incubated at room temperature for 30 minutes. The assay was stopped by adding cAMP detection mix (containing detergents for cell lysis) for 90 minutes at room temperature.
Cellular cAMP was measured using a Paradigm reader (Molecular Devices). The raw data was used to calculate the FRET signal based on the assay's P-factor as per cAMP kit instructions. The data was normalized to the maximal activity of a reference antagonist and dose response curves were fitted to the percent activity of the test compounds using a sigmoidal dose response model (Genedata Screener).
Results in the hGPR17 cAMP assay are provided for compounds of formula I in Table 1 Table 1: […]

Chain of human GPR17 short isoform (Q13304 29-367): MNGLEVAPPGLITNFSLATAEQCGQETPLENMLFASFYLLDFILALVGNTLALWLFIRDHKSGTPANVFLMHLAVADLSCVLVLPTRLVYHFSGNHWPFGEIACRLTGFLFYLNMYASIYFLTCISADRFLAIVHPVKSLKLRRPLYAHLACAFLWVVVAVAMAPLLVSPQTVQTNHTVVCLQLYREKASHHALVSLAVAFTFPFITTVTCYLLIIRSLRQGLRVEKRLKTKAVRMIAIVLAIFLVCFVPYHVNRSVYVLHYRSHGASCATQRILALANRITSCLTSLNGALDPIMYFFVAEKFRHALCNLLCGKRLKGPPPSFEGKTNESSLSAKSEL

Structure (SMILES)	IC50
[2H]C([2H])(Oc1c(OC)nc(NS(=O)(=O)c2c[nH]c3c(-n4nccn4)c(Cl)ccc23)nc1OC)C(F)F [Example 59, 6-chloro-N-[5-(1,1-dideuterio-2,2-difluoro-ethoxy)-4,6-dimethoxy-pyrimidin-2-yl]-7-(triazol-2-yl)-1H-indole-3-sulfonamide]	74 nM
COc1nc(NS(=O)(=O)c2c[nH]c3c(-n4nccn4)c(Cl)ccc23)nc(OC)c1OCC#N [Example 60, 6-chloro-N-[5-(cyanomethoxy)-4,6-dimethoxy-pyrimidin-2-yl]-7-(triazol-2-yl)-1H-indole-3-sulfonamide]	49 nM
COc1nc(NS(=O)(=O)c2c[nH]c3c(-n4nccn4)c(Cl)ccc23)nc(OC)c1CCC#N [Example 61, 6-chloro-N-[5-(2-cyanoethyl)-4,6-dimethoxy-pyrimidin-2-yl]-7-(triazol-2-yl)-1H-indole-3-sulfonamide]	29 nM
COc1nc(NS(=O)(=O)c2c[nH]c3c(-n4nccn4)c(Cl)c(F)cc23)nc(OC)c1OCC(F)F [Example 64, 6-chloro-N-[5-(2,2-difluoroethoxy)-4,6-dimethoxy-pyrimidin-2-yl]-5-fluoro-7-(triazol-2-yl)-1H-indole-3-sulfonamide]	75 nM
COc1nc(NS(=O)(=O)c2c[nH]c3c(-n4cccn4)c(Cl)ccc23)nc(OC)c1OCC(F)F [Example 65, 6-chloro-N-[5-(2,2-difluoroethoxy)-4,6-dimethoxy-pyrimidin-2-yl]-7-pyrazol-1-yl-1H-indole-3-sulfonamide]	22 nM
COc1nc(NS(=O)(=O)c2c[nH]c3c(-n4cccn4)c(Cl)ccc23)nc(OC)c1OC(F)F [Example 66, 6-chloro-N-[5-(difluoromethoxy)-4,6-dimethoxy-pyrimidin-2-yl]-7-pyrazol-1-yl-1H-indole-3-sulfonamide]	21 nM
COc1nc(NS(=O)(=O)c2c[nH]c3c(-n4cccn4)c(Cl)ccc23)nc(OC)c1CCC#N [Example 70, 6-chloro-N-[5-(2-cyanoethyl)-4,6-dimethoxy-pyrimidin-2-yl]-7-pyrazol-1-yl-1H-indole-3-sulfonamide]	37 nM
[2H]C([2H])(c1cnc(NS(=O)(=O)c2c[nH]c3c(-n4cccn4)c(Cl)ccc23)nc1OC)C(F)F [Example 72, 6-chloro-N-[5-(1,1-dideuterio-2,2-difluoroethyl)-4-methoxy-pyrimidin-2-yl]-7-pyrazol-1-yl-1H-indole-3-sulfonamide]	41 nM
COc1nc(NS(=O)(=O)c2c[nH]c3c(-n4cccn4)c(Cl)ccc23)nc(OC)c1C1CC1C#N (stereo not shown) [Example 73, 6-chloro-N-[5-(2-cyanocyclopropyl)-4,6-dimethoxy-pyrimidin-2-yl]-7-pyrazol-1-yl-1H-indole-3-sulfonamide]	41 nM
COc1nc(NS(=O)(=O)c2c[nH]c3c(-n4cccn4)c(C)ccc23)nc(OC)c1OCC(F)F [Example 74, N-[5-(2,2-difluoroethoxy)-4,6-dimethoxy-pyrimidin-2-yl]-6-methyl-7-pyrazol-1-yl-1H-indole-3-sulfonamide]	59 nM
[2H]C([2H])(c1cnc(NS(=O)(=O)c2c[nH]c3c(-n4nccn4)c(Cl)ccc23)nc1OC)C(F)F [Example 79, 6-chloro-N-[5-(1,1-dideuterio-2,2-difluoroethyl)-4-methoxy-pyrimidin-2-yl]-7-(triazol-2-yl)-1H-indole-3-sulfonamide]	36 nM
COc1nc(NS(=O)(=O)c2c[nH]c3c(-n4cccn4)c(Br)ccc23)nc(OC)c1CC(F)F [Example 81, 6-bromo-N-[5-(2,2-difluoroethyl)-4,6-dimethoxy-pyrimidin-2-yl]-7-pyrazol-1-yl-1H-indole-3-sulfonamide]	18 nM
COc1nc(NS(=O)(=O)c2c[nH]c3c(-n4cccn4)c(Br)ccc23)nc(OC)c1OCCF [Example 83, 6-bromo-N-[5-(2-fluoroethoxy)-4,6-dimethoxy-pyrimidin-2-yl]-7-pyrazol-1-yl-1H-indole-3-sulfonamide]	36 nM
[2H]C([2H])(F)C([2H])([2H])Oc1c(OC)nc(NS(=O)(=O)c2c[nH]c3c(-n4cccn4)c(Br)ccc23)nc1OC [Example 84, 6-bromo-N-[4,6-dimethoxy-5-(1,1,2,2-tetradeuterio-2-fluoro-ethoxy)pyrimidin-2-yl]-7-pyrazol-1-yl-1H-indole-3-sulfonamide]	26 nM

The remaining lines, values ahead:

IC50	Structure (SMILES)
1270 nM	COc1nc(NS(=O)(=O)c2c[nH]c3c(-n4nccn4)c(Cl)ccc23)nc(OC)c1OC(C)(C)CF [Example 58, 6-chloro-N-[5-(2-fluoro-1,1-dimethyl-ethoxy)-4,6-dimethoxy-pyrimidin-2-yl]-7-(triazol-2-yl)-1H-indole-3-sulfonamide]
19 nM	COc1nc(NS(=O)(=O)c2c[nH]c3c(-n4nccn4)c(Cl)ccc23)nc(OC)c1C [Example 62, 6-chloro-N-(4,6-dimethoxy-5-methyl-pyrimidin-2-yl)-7-(triazol-2-yl)-1H-indole-3-sulfonamide]
37 nM	COc1nc(NS(=O)(=O)c2c[nH]c3c(-n4nccn4)c(Cl)ccc23)nc(OC)c1Br [Example 63, N-(5-bromo-4,6-dimethoxy-pyrimidin-2-yl)-6-chloro-7-(triazol-2-yl)-1H-indole-3-sulfonamide]
31 nM	COc1nc(NS(=O)(=O)c2c[nH]c3c(-n4cccn4)c(Cl)ccc23)nc(OC)c1OCCF [Example 67, 6-chloro-N-[5-(2-fluoroethoxy)-4,6-dimethoxy-pyrimidin-2-yl]-7-pyrazol-1-yl-1H-indole-3-sulfonamide]
36 nM	[2H]C([2H])(F)C([2H])([2H])Oc1c(OC)nc(NS(=O)(=O)c2c[nH]c3c(-n4cccn4)c(Cl)ccc23)nc1OC [Example 68, 6-chloro-N-[4,6-dimethoxy-5-(1,1,2,2-tetradeuterio-2-fluoro-ethoxy)pyrimidin-2-yl]-7-pyrazol-1-yl-1H-indole-3-sulfonamide]
52 nM	COc1nc(NS(=O)(=O)c2c[nH]c3c(-n4cccn4)c(Cl)ccc23)nc(OC)c1OCC#N [Example 69, 6-chloro-N-[5-(cyanomethoxy)-4,6-dimethoxy-pyrimidin-2-yl]-7-pyrazol-1-yl-1H-indole-3-sulfonamide]
63 nM	COc1nc(NS(=O)(=O)c2c[nH]c3c(-n4cccn4)c(Cl)ccc23)ncc1CC(F)F [Example 71, 6-chloro-N-[5-(2,2-difluoroethyl)-4-methoxy-pyrimidin-2-yl]-7-pyrazol-1-yl-1H-indole-3-sulfonamide]
42 nM	COc1nc(NS(=O)(=O)c2c[nH]c3c(-n4cccn4)c(Br)ccc23)nc(OC)c1OCC(F)F [Example 75, 6-bromo-N-[5-(2,2-difluoroethoxy)-4,6-dimethoxy-pyrimidin-2-yl]-7-pyrazol-1-yl-1H-indole-3-sulfonamide]
75 nM	COc1nc(NS(=O)(=O)c2c[nH]c3c(-n4cccn4)c(C)ccc23)nc(OC)c1OC(F)F [Example 76, N-[5-(difluoromethoxy)-4,6-dimethoxy-pyrimidin-2-yl]-6-methyl-7-pyrazol-1-yl-1H-indole-3-sulfonamide]
27 nM	COc1nc(NS(=O)(=O)c2c[nH]c3c(-n4cccn4)c(Br)ccc23)nc(OC)c1OC(F)F [Example 77, 6-bromo-N-[5-(difluoromethoxy)-4,6-dimethoxy-pyrimidin-2-yl]-7-pyrazol-1-yl-1H-indole-3-sulfonamide]
55 nM	COc1nc(NS(=O)(=O)c2c[nH]c3c(-n4nccn4)c(Cl)ccc23)ncc1CC(F)F [Example 78, 6-chloro-N-[5-(2,2-difluoroethyl)-4-methoxy-pyrimidin-2-yl]-7-(triazol-2-yl)-1H-indole-3-sulfonamide]
29 nM	COc1nc(NS(=O)(=O)c2c[nH]c3c(-n4cccn4)c(C)ccc23)nc(OC)c1CC(F)F [Example 80, N-[5-(2,2-difluoroethyl)-4,6-dimethoxy-pyrimidin-2-yl]-6-methyl-7-pyrazol-1-yl-1H-indole-3-sulfonamide]
68 nM	COc1nc(NS(=O)(=O)c2c[nH]c3c(-n4cccn4)c(C)ccc23)nc(OC)c1OCCF [Example 82, N-[5-(2-fluoroethoxy)-4,6-dimethoxy-pyrimidin-2-yl]-6-methyl-7-pyrazol-1-yl-1H-indole-3-sulfonamide]
42 nM	[2H]C([2H])(F)C([2H])([2H])Oc1c(OC)nc(NS(=O)(=O)c2c[nH]c3c(-n4nccn4)c(Cl)ccc23)nc1OC [Example 85, 6-chloro-N-[4,6-dimethoxy-5-(1,1,2,2-tetradeuterio-2-fluoro-ethoxy)pyrimidin-2-yl]-7-(triazol-2-yl)-1H-indole-3-sulfonamide]

Reference: EP4562004B1, “NOVEL 7-SUBSTITUTED INDOLE SULFONAMIDE DERIVATIVES” (F. Hoffmann-La Roche AG, priority 2022, dated 2024)
